# ChEMBL document CHEMBL1201862, “PubChem BioAssay data set” (2004)
# Active and inactive are the calls of the source.
# What was measured:
# [1] = target: T1, Mannose-6-phosphate isomerase (Homo sapiens, UniProt P34949); experiment: MPI enzyme activity inhibition – biochemical, fluorescence intensity, coupled assay, primary screen (AID 1209)
# T1 sequence (P34949 whole entry): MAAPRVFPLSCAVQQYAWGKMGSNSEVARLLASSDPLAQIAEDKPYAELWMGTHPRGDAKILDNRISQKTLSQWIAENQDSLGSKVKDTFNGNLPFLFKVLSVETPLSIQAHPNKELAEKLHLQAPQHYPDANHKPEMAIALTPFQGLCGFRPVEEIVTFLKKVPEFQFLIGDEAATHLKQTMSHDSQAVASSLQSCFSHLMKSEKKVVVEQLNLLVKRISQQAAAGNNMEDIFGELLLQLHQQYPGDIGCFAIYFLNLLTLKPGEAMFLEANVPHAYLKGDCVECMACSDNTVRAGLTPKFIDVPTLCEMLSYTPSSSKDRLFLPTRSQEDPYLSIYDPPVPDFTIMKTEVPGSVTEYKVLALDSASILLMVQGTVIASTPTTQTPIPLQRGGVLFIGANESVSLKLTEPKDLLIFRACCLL
# [2] = target: T1, Mannose-6-phosphate isomerase; experiment: phosphomannose isomerase inhibition – biochemical, fluorescence intensity, confirmation (AID 1535)
# Phosphomannomutase 2 = target: T2, Phosphomannomutase 2 (Homo sapiens, UniProt O15305); experiment: Counter screen SAR assay for PMM2 inhibitors via a fluorescence intensity assay. [Related pubchem assays (depositor defined):AID1545, AID1574]
# T2 sequence (O15305 whole entry): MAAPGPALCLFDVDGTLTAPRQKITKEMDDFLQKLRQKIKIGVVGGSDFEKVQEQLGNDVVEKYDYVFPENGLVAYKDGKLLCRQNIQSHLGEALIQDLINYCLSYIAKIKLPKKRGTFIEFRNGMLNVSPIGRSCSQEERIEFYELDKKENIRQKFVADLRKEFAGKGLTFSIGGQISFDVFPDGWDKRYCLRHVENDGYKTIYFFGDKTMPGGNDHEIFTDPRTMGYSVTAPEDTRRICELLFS
# [3] = target: Intestinal-type alkaline phosphatase (Mus musculus, UniProt P24822); experiment: PubChem AID 488785; format: functional
# [4] = target: T3, Alkaline phosphatase, tissue-nonspecific isozyme (Homo sapiens, UniProt P05186); experiment: TNAP enzyme inhibition by screening hits, dose response, selectivity assay for mouse IAP inhibitor project, biochemical, human TNAP, uHTS hits (AID 488906); format: functional
# T3 sequence (P05186 whole entry): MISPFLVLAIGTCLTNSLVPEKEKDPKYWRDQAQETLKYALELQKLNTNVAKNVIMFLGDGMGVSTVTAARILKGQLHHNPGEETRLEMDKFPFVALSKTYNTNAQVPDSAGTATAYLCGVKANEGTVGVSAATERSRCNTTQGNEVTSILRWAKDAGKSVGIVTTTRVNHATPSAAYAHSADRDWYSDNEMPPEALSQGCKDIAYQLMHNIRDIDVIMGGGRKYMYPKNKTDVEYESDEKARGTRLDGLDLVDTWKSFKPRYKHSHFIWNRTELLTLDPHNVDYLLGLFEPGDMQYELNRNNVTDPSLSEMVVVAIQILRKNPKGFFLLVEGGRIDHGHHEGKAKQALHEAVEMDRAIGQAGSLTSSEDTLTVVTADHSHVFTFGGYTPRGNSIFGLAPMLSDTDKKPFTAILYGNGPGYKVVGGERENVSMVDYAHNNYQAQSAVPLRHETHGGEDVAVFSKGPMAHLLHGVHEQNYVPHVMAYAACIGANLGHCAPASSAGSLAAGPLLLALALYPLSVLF
# [5] = target: Intestinal-type alkaline phosphatase (Homo sapiens, UniProt P09923); experiment: inhibition of human intestinal alkaline phosphatase – biochemical, dose response (AID 488876); format: functional
# HEK293 [6] = experiment: inhibition of NOD1-driven NF-kB reporter – cell-based, luminescence, uHTS, primary screen (AID 1578); format: functional; settings: Homo sapiens
# HEK293 [7] = experiment: cells; format: functional, cell-based; settings: Homo sapiens
# HEK293 [8] = experiment: cells; format: functional, cell-based; settings: Homo sapiens; remark: listed apart in the source
# HEK293 [9] = experiment: NOD2 signaling inhibitors in MDP-stimulated cells, cell-based, uHTS, luminescence (AID 2001); format: functional; settings: Homo sapiens
# HEK293 [10] = experiment: cells; format: functional, cell-based; settings: Homo sapiens; remark: listed apart in the source
# HEK293 [11] = experiment: cells; settings: Homo sapiens
# [12] = target: T4, Calpain-2 catalytic subunit (Sus scrofa, UniProt P43367); experiment: m-calpain protease blockers, concentration series – biochemical, fluorogenic peptide substrate, dose response (AID 1420); format: functional
# T4 sequence (P43367 whole entry): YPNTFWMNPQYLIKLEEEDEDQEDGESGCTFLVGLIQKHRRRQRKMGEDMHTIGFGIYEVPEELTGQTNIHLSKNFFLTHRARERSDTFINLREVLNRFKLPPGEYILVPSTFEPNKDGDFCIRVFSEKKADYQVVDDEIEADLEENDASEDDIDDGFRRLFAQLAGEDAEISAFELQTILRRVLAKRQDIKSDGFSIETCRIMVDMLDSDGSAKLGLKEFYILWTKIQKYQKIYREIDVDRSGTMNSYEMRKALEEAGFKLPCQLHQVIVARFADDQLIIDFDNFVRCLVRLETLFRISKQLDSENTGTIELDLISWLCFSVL
# Coagulation factor XII = target: T5, Coagulation factor XII (Homo sapiens, UniProt P00748); format: functional;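 note: activated factor XIIa alpha cleaving a fluorogenic AMC peptide substrate; inhibitor potency from loss of enzyme activity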
# T5 sequence (P00748 whole entry): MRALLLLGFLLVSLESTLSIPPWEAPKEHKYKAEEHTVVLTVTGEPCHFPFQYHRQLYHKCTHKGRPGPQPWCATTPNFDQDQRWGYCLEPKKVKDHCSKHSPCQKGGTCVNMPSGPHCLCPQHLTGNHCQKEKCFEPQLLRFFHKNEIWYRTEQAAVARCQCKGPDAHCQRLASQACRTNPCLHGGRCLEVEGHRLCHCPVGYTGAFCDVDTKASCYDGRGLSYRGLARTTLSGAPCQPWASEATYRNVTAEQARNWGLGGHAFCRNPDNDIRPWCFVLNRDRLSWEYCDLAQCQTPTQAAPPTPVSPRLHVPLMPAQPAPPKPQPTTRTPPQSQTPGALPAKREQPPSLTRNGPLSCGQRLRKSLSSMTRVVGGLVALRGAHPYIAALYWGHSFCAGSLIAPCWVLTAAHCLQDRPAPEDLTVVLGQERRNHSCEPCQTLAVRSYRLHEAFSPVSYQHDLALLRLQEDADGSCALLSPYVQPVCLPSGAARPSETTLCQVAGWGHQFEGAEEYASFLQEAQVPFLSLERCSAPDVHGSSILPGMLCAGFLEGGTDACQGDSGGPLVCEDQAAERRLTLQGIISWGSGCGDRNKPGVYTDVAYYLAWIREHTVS
# [13] = Luminescence Cell-Based Dose Response HTS to Identify Activators of Luciferase Translation or Activity in H4 […] Cells. [Related pubchem assays: 1829 (Project Summary), 1814 (Primary HTS)]; format: functional
# H4 = experiment: Luminescence Cell-Based Dose Response HTS to Identify Activators of 5'UTR Stem-Loop Driven Prion Protein mRNA Translation in H4 Neuroglioblastoma Cells. [Related pubchem assays: 1829 (Project Summary), 1814 (Primary HTS)]; format: functional; settings: Homo sapiens
# Prothrombin [14] = target: Prothrombin (Homo sapiens, UniProt P00734); experiment: Thrombin 1536 HTS Dose Response Confirmation. [Related pubchem assays: 1046 (Thrombin 1536 HTS; hits were confirmed in this assay)]; format: functional
# SUMO-activating enzyme [15] = target: T6, SUMO-activating enzyme (Homo sapiens, UniProt Q9UBT2); experiment: blockers of UBC9-mediated SUMO conjugation – biochemical, AlphaScreen, SUMOylation inhibitor project, confirmation (AID 2018); format: functional
# SUMO-activating enzyme [16] = target: T6, SUMO-activating enzyme; experiment: blockers of SAE1/SAE2–UBC9 SUMO transfer – biochemical, HTRF, uHTS, primary screen (AID 2006); format: protein-complex assay
# [17] = target: T7, Tyrosine-protein phosphatase non-receptor type 11 (Homo sapiens, UniProt Q06124); experiment: PTPN11 enzyme inhibitors – biochemical, selectivity assay for STEP inhibitor project, dose response (AID 602367); format: functional; settings: read-out: IC50_Mean
# T7 sequence (Q06124 whole entry): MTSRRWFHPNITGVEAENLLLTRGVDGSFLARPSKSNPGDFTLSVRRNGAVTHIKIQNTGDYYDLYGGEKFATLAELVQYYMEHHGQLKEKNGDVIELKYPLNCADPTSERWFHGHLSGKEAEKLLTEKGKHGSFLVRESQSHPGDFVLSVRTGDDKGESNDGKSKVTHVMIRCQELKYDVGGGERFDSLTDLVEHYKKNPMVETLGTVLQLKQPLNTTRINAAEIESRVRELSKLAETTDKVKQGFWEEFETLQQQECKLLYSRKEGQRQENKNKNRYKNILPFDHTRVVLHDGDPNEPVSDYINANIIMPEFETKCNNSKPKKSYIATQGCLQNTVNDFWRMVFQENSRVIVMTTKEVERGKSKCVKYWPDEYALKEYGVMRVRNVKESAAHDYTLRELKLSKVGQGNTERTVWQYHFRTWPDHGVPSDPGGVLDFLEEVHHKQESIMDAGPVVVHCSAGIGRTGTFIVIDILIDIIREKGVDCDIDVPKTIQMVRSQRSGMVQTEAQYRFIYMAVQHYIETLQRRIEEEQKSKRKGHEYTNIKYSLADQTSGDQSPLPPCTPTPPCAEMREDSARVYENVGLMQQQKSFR
# [18] = target: 26S proteasome non-ATPase regulatory subunit 14 (Homo sapiens, UniProt O00487); experiment: inhibition of proteasome subunit RPN11 – biochemical, fluorescence polarization, uHTS hits, confirmation (AID 602368); format: functional
# [19] = target: T8, Tyrosine-protein phosphatase non-receptor type 5 (Homo sapiens, UniProt P54829); experiment: PTPN5 enzyme inhibition – biochemical, fluorescence intensity, uHTS hits, confirmation (AID 602372); format: functional; settings: read-out: IC50_Mean
# T8 sequence (P54829 whole entry): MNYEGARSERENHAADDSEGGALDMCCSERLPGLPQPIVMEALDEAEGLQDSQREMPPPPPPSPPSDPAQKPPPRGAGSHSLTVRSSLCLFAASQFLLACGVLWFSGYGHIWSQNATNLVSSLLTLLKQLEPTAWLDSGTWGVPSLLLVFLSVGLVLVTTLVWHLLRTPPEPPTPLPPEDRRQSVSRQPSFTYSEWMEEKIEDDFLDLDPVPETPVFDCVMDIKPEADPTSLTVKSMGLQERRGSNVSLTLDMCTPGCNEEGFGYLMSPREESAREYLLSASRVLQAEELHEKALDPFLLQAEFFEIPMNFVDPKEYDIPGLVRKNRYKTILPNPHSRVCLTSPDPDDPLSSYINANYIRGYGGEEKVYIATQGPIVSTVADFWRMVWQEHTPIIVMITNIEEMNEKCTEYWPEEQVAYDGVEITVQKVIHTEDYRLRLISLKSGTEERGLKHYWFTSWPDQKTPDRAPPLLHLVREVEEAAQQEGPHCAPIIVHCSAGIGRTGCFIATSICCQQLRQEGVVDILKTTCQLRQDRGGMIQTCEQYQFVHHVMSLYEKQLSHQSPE
# [20] = target: 72 kDa type IV collagenase (Homo sapiens, UniProt P08253); experiment: Dose Response validation of uHTS RPN11 inhibitor hits using a MMP-2 Fluorescence assay.; format: functional
# [21] = target: Dual specificity protein phosphatase 3 (Homo sapiens, UniProt P51452); experiment: VHR phosphatase inhibition, dose response, selectivity assay for STEP inhibitor project, biochemical (AID 602374); format: functional; settings: read-out: IC50_Mean
# Prothrombin [22] = target: Prothrombin (Bos taurus, UniProt P00735); experiment: thrombin protease inhibitors – biochemical, fluorescence polarization, uHTS hits, dose response (AID 602369); format: functional
# [23] = target: T9, Small ubiquitin-related modifier 1 (Homo sapiens, UniProt P63165); experiment: SUMO1 protein interaction blockers, potency – biochemical, fluorescence polarization, uHTS hits, dose response (AID 624382); format: functional; settings: read-out: IC50_Mean
# [24] = target: T9, Small ubiquitin-related modifier 1; experiment: SUMO1 protein-protein binding blockers, potency – biochemical, FRET, dose response (AID 624383); format: functional; settings: read-out: IC50_Mean
# [25] = Luminescence Cell-Based Dose Retest to Confirm Inhibitors of Cancer Stem Cells. [Related pubchem assays (depositor defined):AID2717, AID2721]; format: functional, Homo sapiens
# 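Throughout, for AC50: cells exposed to compound for roughly 70 hours or longer before luminescence read.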
# T6 sequence (Q9UBE0 whole entry): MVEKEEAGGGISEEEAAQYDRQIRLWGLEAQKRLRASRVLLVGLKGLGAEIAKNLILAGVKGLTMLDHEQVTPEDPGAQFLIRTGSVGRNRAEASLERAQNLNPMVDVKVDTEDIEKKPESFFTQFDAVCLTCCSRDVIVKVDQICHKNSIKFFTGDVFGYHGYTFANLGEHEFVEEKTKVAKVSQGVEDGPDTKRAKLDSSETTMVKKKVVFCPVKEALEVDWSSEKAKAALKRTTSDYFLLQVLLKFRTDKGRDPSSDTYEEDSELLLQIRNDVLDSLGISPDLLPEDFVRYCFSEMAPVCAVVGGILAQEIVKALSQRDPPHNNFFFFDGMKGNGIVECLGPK
# T6 sequence (Q9UBT2 whole entry): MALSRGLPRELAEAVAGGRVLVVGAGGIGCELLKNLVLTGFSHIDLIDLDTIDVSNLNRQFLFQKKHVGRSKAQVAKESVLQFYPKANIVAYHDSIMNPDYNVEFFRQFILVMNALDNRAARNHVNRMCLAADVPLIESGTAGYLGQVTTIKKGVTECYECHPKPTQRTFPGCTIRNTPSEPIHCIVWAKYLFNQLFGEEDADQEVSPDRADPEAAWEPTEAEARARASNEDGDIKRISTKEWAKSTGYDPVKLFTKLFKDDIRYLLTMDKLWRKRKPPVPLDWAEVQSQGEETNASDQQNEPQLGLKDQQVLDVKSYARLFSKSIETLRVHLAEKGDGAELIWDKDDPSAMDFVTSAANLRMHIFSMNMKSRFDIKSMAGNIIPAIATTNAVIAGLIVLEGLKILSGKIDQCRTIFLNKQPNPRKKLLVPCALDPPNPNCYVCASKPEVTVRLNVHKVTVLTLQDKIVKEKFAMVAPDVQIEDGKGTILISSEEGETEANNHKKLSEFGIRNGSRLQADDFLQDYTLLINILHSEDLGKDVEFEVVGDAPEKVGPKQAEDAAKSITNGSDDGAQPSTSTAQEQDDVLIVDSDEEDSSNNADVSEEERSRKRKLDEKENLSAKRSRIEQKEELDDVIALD
# T9 sequence (P63165 whole entry): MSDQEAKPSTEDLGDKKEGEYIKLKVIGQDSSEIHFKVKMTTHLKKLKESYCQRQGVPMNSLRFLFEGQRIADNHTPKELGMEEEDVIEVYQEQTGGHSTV
# Sequence of Dual specificity protein phosphatase 3 (P51452 whole entry): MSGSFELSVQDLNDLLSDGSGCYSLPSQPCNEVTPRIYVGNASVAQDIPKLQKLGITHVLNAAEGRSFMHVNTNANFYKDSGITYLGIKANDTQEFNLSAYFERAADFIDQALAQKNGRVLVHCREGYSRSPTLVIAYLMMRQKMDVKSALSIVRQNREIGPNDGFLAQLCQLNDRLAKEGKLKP
# Sequence of 72 kDa type IV collagenase (P08253 whole entry): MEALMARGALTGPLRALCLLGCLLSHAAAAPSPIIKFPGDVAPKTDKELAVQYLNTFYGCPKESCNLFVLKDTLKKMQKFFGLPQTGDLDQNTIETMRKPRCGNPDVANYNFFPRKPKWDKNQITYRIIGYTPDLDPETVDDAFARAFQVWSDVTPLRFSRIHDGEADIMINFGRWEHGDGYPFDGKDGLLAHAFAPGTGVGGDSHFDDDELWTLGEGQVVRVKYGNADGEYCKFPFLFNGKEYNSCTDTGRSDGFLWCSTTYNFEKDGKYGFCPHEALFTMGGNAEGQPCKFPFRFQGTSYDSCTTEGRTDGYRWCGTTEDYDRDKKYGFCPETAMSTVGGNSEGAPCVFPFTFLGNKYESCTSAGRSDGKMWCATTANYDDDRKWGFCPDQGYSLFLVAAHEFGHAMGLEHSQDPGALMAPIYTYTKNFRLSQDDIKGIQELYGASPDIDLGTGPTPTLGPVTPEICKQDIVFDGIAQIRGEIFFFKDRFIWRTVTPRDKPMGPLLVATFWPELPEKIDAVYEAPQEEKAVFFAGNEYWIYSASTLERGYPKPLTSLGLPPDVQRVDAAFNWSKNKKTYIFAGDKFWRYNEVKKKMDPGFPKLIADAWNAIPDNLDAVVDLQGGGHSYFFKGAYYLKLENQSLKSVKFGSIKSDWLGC
# Sequence of Intestinal-type alkaline phosphatase (Homo sapiens, UniProt P09923) (P09923 whole entry): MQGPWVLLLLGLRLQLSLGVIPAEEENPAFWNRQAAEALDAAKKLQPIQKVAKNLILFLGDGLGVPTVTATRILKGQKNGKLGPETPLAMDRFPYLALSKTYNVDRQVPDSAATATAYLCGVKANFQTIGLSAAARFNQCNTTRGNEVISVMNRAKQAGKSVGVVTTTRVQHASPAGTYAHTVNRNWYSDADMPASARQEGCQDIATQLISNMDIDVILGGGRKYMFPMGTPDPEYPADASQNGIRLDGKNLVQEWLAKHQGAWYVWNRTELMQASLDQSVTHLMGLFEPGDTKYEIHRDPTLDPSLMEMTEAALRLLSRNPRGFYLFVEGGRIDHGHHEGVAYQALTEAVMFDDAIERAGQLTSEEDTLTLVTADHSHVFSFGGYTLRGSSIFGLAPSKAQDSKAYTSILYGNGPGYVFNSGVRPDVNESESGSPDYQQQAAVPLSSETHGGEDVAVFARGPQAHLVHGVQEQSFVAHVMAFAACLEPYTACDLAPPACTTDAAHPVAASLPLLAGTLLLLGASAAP
# Sequence of Intestinal-type alkaline phosphatase (Mus musculus, UniProt P24822) (P24822 whole entry): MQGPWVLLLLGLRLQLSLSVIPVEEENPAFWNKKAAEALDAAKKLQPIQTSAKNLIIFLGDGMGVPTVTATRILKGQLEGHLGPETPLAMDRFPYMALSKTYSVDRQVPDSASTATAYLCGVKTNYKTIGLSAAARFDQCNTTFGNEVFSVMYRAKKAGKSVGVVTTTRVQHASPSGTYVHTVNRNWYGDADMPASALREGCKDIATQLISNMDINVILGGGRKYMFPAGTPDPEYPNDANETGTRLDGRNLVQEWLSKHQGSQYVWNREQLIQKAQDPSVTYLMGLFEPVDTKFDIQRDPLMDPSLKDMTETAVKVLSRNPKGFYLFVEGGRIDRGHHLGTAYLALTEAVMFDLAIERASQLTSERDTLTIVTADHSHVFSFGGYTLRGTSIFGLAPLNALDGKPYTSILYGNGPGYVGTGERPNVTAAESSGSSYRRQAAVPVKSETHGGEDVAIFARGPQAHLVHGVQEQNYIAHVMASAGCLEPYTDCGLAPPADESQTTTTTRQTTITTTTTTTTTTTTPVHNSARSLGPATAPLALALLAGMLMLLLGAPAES
# Sequence of 26S proteasome non-ATPase regulatory subunit 14 (O00487 whole entry): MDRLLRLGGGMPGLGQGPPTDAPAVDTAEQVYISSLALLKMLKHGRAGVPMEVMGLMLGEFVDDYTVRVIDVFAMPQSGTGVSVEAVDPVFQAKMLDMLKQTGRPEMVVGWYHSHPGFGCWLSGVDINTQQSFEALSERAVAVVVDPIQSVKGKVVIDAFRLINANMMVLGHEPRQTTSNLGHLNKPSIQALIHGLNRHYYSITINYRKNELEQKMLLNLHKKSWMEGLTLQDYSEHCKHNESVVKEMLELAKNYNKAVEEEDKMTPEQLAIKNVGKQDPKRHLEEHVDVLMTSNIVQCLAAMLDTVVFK
compound,measurement,setting,value
O=C(CSc1nc[nH]n1)CSc1nc[nH]n1,IC50,[1],12.7 µM (active)
same,IC50,[2],> 50 µM (inactive)
same,IC50,Phosphomannomutase 2,> 100 µM (inactive)
same,IC50,[3],0.373 µM (active)
same,IC50,[4],8.85 µM (active)
same,IC50,[5],7.33 µM (active)
Cc1oc(-c2ccccc2Cl)nc1CSc1nc(O)c2c(n1)CCCC2,EC50,HEK293 [6],8.45 µM (active)
same,IC50,HEK293 [7],19.5 µM (active)
same,IC50,HEK293 [8],> 20 µM (inactive)
same,IC50,HEK293 [9],7.49 µM (active)
same,IC50,HEK293 [10],> 20 µM (inactive)
same,IC50,HEK293 [11],> 20 µM (inactive)
O=C1N=C(Nc2ccccc2)S/C1=C/c1cccs1,IC50,[12],> 50 µM (not active)
same,IC50,Coagulation factor XII,> 50 µM (inactive)
O=C(NNC1=NCCCCC1)Nc1cccc(Cl)c1,EC50,[13],0.409 µM (active)
same,EC50,H4,0.242 µM (active)
same,IC50,Prothrombin [14],7.74 µM (active)
same,IC50,Coagulation factor XII,> 50 µM (inactive)
O=Cc1cn(-c2ccccc2)nc1-c1cc2cc(O)ccc2oc1=O,IC50,SUMO-activating enzyme [15],11.4 µM (active)
same,IC50,SUMO-activating enzyme [16],18.1 µM (active)
same,IC50,[17],1.96 µM (active)
same,IC50,[18],19.4 µM (active)
same,IC50,[19],27.5 µM (inactive)
same,IC50,[20],> 100 µM (inactive)
same,IC50,[21],3.02 µM (active)
same,IC50,Prothrombin [22],35.5 µM (active)
same,IC50,[23],> 66.6 µM (inactive)
same,IC50,[24],7.28 µM (active)
C=C(C)[C@@H]1CC[C@]2(C(=O)O)CC[C@]3(C)[C@H](CC[C@@H]4[C@@]5(C)CC[C@H](O)C(C)(C)[C@@H]5CC[C@]43C)[C@@H]12 [BETULINIC ACID],IC50,SUMO-activating enzyme [15],13.2 µM (active)
same,IC50,SUMO-activating enzyme [16],9.24 µM (active)
same,AC50,[25],1.94 µM (active)
same,AC50,[25]; Homo sapiens,3.05 µM (active)
